Reference: the supplement of paper PMC10307832

Legend:
Assay in all cases: relative viability (nuclei count vs DMSO), 5 days (fraction); higher = more cells survive
[1] = compound: CCc1c2c(nc3ccc(OC(=O)N4CCC(N5CCCCC5)CC4)cc13)-c1cc3c(c(=O)n1C2)COC(=O)[C@]3(O)CC [Irinotecan] + Nc1nc2[nH]cc(CCc3ccc(C(=O)N[C@@H](CCC(=O)O)C(=O)O)cc3)c2c(=O)[nH]1 [Pemetrexed] (partner 0.2 µM)
Procedure, shortened: (§1)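 Lung cancer cell lines in 1536-well plates got either a single drug or a fixed anchor-drug dose together with five library-drug doses (not always all listed) in √10 steps, by pin tool, on the day after seeding. Nuclei were counted after 5 days, and relative viability is the treated-to-vehicle ratio of nuclei counts. Values are medians of duplicate plates.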

[2] = compound: CC[C@@H](C)CNCC(=O)N1CCC2=C([C@@H]1COC3=CC=CC(=C3)C)C=CS2 [RU-SKI 43] + Cc1nc(NC(=O)N2CCC[C@H]2C(N)=O)sc1-c1ccnc(C(C)(C)C(F)(F)F)c1 [Alpelisib] (partner 2 µM)
Procedure, shortened: as §1

[3] = compound: CCc1c2c(nc3ccc(OC(=O)N4CCC(N5CCCCC5)CC4)cc13)-c1cc3c(c(=O)n1C2)COC(=O)[C@]3(O)CC [Irinotecan] + COc1cccc2cc(-c3nc([C@H]4CC[C@H](C(=O)O)CC4)n4ncnc(N)c34)[nH]c12 [OSI-027] (partner 0.5 µM)
Procedure, shortened: as §1

[4] = compound: CC[C@@H](C)CNCC(=O)N1CCC2=C([C@@H]1COC3=CC=CC(=C3)C)C=CS2 [RU-SKI 43] + Cc1nc(Nc2ncc(C(=O)Nc3c(C)cccc3Cl)s2)cc(N2CCN(CCO)CC2)n1 [Dasatinib] (partner 0.075 µM)
Procedure, shortened: as §1

Cell Line	relative viability ([1]; first compound 0.6325 µM)	relative viability ([1]; first compound 2 µM)	relative viability ([1]; first compound 6.325 µM)	relative viability ([1]; first compound 20 µM)	relative viability ([2]; first compound 0.1 µM)	relative viability ([2]; first compound 0.3162 µM)	relative viability ([2]; first compound 1 µM)	relative viability ([2]; first compound 3.162 µM)	relative viability ([2]; first compound 10 µM)	relative viability ([3]; first compound 0.6325 µM)	relative viability ([3]; first compound 2 µM)	relative viability ([3]; first compound 6.325 µM)	relative viability ([3]; first compound 20 µM)	relative viability ([4]; first compound 0.1 µM)	relative viability ([4]; first compound 0.3162 µM)	relative viability ([4]; first compound 1 µM)	relative viability ([4]; first compound 3.162 µM)	relative viability ([4]; first compound 10 µM)
COR-L23	0.181	0.178	0.204	0.165	0.87	0.657	0.725	0.757	0.815	0.578	0.556	0.179	0.145	0.461	0.491	0.55	0.445	0.443
NCI-H2347	0.429	0.427	0.342	0.427	1.1	1.19	1.13	1.15	0.949	0.27	0.375	0.337	0.386	0.34	0.23	0.364	0.203	0.293
LU99A	0.162	0.126	0.155	0.109	0.526	0.558	0.5	0.578	0.456	0.202	0.243	0.181	0.242	0.486	0.614	0.602	0.587	0.599
COR-L 105	1.35	0.93	0.649	0.442	0.935	0.818	0.931	0.916	0.921	0.773	0.859	0.565	0.166	0.323	0.259	0.304	0.36	0.335
PC-3 [JPC-3]	0.512	1.25	0.522	0.463	0.988	1.03	1.11	1.08	0.998	0.46	0.785	0.397	0.344	1.07	1.09	0.973	0.968	0.939
NCI-H2009	0.783	0.439	0.211	0.121	1.18	1.3	1.2	1.15	1.13	0.491	0.508	0.314	0.124	0.314	0.296	0.324	0.289	0.276
HCC-366	0.15	0.192	0.0569	0.0611	0.439	0.53	0.438	0.572	0.355	0.144	0.714	0.0844	0.0682	0.61	0.955	0.715	0.698	0.476
HARA	0.211	0.294	0.182	0.192	0.762	0.729	0.843	0.69	0.733	0.148	0.186	0.142	0.0795	0.288	0.317	0.303	0.34	0.156
NCI-H1792	0.507	0.823	0.188	0.282	0.574	1.1	0.736	0.886	0.735	0.7	0.617	0.456	0.231	0.772	1.03	0.739	0.892	0.845
HCC-827	0.264	0.236	0.248	0.206	0.92	1.06	1.03	1.01	0.965	0.639	0.64	0.224	0.216	0.249	0.267	0.319	0.298	0.331
LXF-289	0.733	0.854	0.54	0.212	1.02	0.96	1.1	1.13	0.963	0.472	0.797	0.421	0.24	0.217	0.21	0.218	0.231	0.187
NCI-H460	0.0679	0.093	0.0699	0.0601	0.44	0.657	0.6	0.5	0.36	0.347	0.494	0.12	0.043	0.505	0.592	0.652	0.573	0.51
NCI-H2023	0.256	0.2	0.156	0.0599	0.62	0.722	0.6	0.605	0.521	0.319	0.377	0.238	0.0537	0.581	0.835	0.649	0.599	0.61
PC-14	0.155	0.175	0.136	0.111	0.9	0.91	1.04	0.938	0.956	0.286	0.498	0.243	0.117	0.242	0.25	0.283	0.241	0.183
NCI-H1734	–	0.385	0.222	0.141	0.595	0.698	0.755	0.672	0.671	–	0.509	0.225	0.165	0.384	0.451	0.478	0.444	0.343
HOP-62	0.0967	0.337	0.17	0.166	0.978	0.934	1.26	1.09	1.01	0.48	0.768	0.224	0.22	0.741	0.709	0.875	0.641	0.603
NCI-H2405	–	1.12	0.315	0.256	0.8	0.787	0.651	0.789	0.721	–	0.596	0.382	0.289	0.213	0.198	0.218	0.209	0.194
A-427	0.884	1	0.396	0.229	1.13	1.16	1.18	–	1.02	–	0.315	0.244	0.227	0.823	0.656	0.693	0.718	0.643
LCLC-97TM1	0.124	0.196	0.129	0.133	0.215	–	0.206	0.241	0.234	0.224	0.207	0.108	0.133	0.961	0.919	0.974	0.811	0.796
NCI-H3122	0.205	0.202	0.139	0.14	0.771	0.7	0.743	0.935	0.734	1.04	0.649	0.22	0.0566	0.959	0.913	0.806	0.778	0.838
RERF-LC-KJ	0.321	0.435	0.44	0.211	0.826	0.98	0.734	0.821	0.802	0.364	0.492	0.534	0.112	0.788	0.938	0.992	0.771	0.704
NCI-H2170	0.277	0.245	0.238	0.151	0.78	0.855	0.86	0.826	0.808	0.546	0.767	0.255	0.174	0.695	0.634	0.616	0.716	0.467
HCC-15	0.18	0.188	0.207	0.189	0.96	1.02	0.963	0.931	0.844	–	0.441	0.198	0.14	0.709	0.635	0.689	0.633	0.64
SK-LU-1	0.521	0.455	0.334	0.276	0.931	1.31	1.25	1.13	1.01	0.302	0.301	0.293	0.238	0.163	0.172	0.172	0.194	0.159
NCI-H1793	–	0.699	0.395	0.253	0.676	0.784	0.764	0.894	0.686	–	0.251	0.255	0.198	0.388	0.381	0.357	0.385	0.316
H3255	0.529	0.603	0.393	0.37	0.719	0.834	0.773	0.725	0.686	0.502	0.445	0.373	0.367	0.364	0.387	0.578	0.393	0.309
NCI-H1666	0.762	0.766	0.676	0.63	1.09	1.09	0.966	0.789	0.582	0.792	0.809	0.544	0.26	0.772	0.922	0.799	0.763	0.699
201T	0.274	0.308	0.271	0.283	1.08	1.01	0.984	1.03	1.01	0.723	0.643	0.344	0.153	0.565	0.547	0.624	0.627	0.56
LK-2	0.227	0.343	0.182	0.336	1.27	1.41	1.18	–	1.24	0.162	0.2	0.237	0.253	0.308	0.248	0.315	0.295	0.251
NCI-H1755	0.383	0.45	0.39	0.448	0.97	1.21	1.04	1.05	0.916	0.378	0.652	0.381	0.42	0.417	0.474	0.469	0.521	0.379
